Structures can show the parent of a compound that is named as a salt. Where two headings read alike, the source gives them in different places.
Columns and labels:
Type in all cases: biochemical
Human Thrombin = Human Thrombin (Homo sapiens, UniProt P00734); assay: Inhibition of amidase activity of thrombin (Kass)
factor Xa = target: T1, factor Xa (Homo sapiens, UniProt P00742); assay: Kass with factor Xa, chromogenic substrate; conditions: substrate N-Benzoyl-Ile-Glu-Gly-Arg-p-nitroanilide
T1 construct: Human factors X, Xa, IXa, XIa, and XIIa are purchased; purchased Enzyme Research Laboratories, South Bend, Ind
T1 sequence (P00742 235-488 limits assumed): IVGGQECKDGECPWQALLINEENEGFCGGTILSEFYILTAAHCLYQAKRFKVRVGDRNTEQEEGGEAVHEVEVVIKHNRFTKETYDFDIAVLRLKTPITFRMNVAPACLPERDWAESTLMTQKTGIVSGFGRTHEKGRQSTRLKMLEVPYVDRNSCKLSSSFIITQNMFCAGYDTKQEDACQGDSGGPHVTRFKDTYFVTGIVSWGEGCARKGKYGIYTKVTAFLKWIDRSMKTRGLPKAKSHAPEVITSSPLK
T1 sequence (P00742 41-179 partner limits assumed): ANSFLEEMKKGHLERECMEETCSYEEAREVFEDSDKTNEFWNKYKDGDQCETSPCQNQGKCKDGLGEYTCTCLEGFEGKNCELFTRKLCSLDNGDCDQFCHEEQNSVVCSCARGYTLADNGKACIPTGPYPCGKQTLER
Protocol: (§1) By substantially following the procedures described above for human thrombin, and using other human blood coagulation system serine proteases and proteases of the fibrinolytic system with the appropriate chromogenic substrates, identified below, selectivity of the compounds of the present invention with respect to the coagulation factor serine proteases and with respect to the fibrinolytic system serine proteases are evaluated as well as their substantial lack of interference with serine proteases of the fibrinolytic system. Thrombin inhibitors preferably should spare fibrinolysis induced by urokinase, tissue plasminogen activator (t-PA) and streptokinase. This would be important to the therapeutic use of such agents as an adjunct to streptokinase, t-PA or urokinase thrombolytic therapy and to the use of such agents as an endogenous fibrinolysis-sparing (with respect to t-PA and urokinase) antithrombotic agent. In addition to the lack of interference with the amidase activity of the fibrinolytic proteases, such fibrinolytic system sparing can be studied by the use of human plasma clots and their lysis by the respective fibrinolytic plasminogen activators.
(§2) Human factors X, Xa, IXa, XIa, and XIIa are purchased from Enzyme Research Laboratories, South Bend, Ind.; human urokinase from Leo Pharmaceuticals, Denmark; and recombinant activated Protein C (aPC) is prepared at Eli Lilly and Co. substantially according to U.S. Patent No. 4,981,952. Chromogenic substrates: N-Benzoyl-Ile-Glu-Gly-Arg-p-nitroanilide (for factor Xa); N-Cbz-D-Arg-Gly-Arg-p-nitroanilide (for factor IXa assay as the factor Xa substrate); Pyroglutamyl-Pro-Arg-p-nitroanilide (for Factor XIa and for aPC); H-D-Pro-Phe-Arg-p-nitroanilide (for factor XIIa); and Pyroglutamyl-Gly-Arg-p-nitroanilide (for urokinase); are purchased from KabiVitrum, Stockholm, Sweden, or from Midwest Biotech, Fishers, Ind. Bovine trypsin is purchased from Worthington Biochemicals, Freehold, N.J., and human plasma kallikrein from Kabi Vitrum, Stockholm, Sweden. Chromogenic substrate H-D-Pro-Phe-Arg-p-nitroanilide for plasma kallikrein is purchased from Kabi Vitrum, Stockholm, Sweden. N-Benzoyl-Phe-Val-Arg-p-nitroanilide, the substrate for human thrombin and for trypsin, is synthesized according to procedures described above for the compounds of the present invention, using known methods of peptide coupling from commercially available reactants or purchased from Midwest Biotech, Fishers, Ind.

Bovine trypsin = target: T2, Bovine trypsin (Bos taurus, UniProt P00760); assay: Kass with trypsin, chromogenic substrate; conditions: substrate N-Benzoyl-Phe-Val-Arg-p-nitroanilide
T2 construct: Bovine trypsin is purchased; purchased Worthington Biochemicals, Freehold, N.J
T2 sequence (P00760 24-246): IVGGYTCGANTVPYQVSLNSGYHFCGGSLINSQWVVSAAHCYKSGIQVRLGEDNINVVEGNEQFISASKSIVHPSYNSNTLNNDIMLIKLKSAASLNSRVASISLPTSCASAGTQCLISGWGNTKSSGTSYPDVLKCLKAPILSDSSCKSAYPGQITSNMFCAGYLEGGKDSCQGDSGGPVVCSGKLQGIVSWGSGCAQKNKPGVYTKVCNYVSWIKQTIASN
Protocol: as §1, §2

Human plasmin = target: T3, Human plasmin (Homo sapiens, UniProt P00747); assay: Kass with plasmin, chromogenic substrate; conditions: substrate H-D-Val-Leu-Lys-p-nitroanilide
T3 construct: Human plasmin is purchased; purchased Boehringer Mannheim, Indianapolis, Ind
T3 sequence (P00747 97-810): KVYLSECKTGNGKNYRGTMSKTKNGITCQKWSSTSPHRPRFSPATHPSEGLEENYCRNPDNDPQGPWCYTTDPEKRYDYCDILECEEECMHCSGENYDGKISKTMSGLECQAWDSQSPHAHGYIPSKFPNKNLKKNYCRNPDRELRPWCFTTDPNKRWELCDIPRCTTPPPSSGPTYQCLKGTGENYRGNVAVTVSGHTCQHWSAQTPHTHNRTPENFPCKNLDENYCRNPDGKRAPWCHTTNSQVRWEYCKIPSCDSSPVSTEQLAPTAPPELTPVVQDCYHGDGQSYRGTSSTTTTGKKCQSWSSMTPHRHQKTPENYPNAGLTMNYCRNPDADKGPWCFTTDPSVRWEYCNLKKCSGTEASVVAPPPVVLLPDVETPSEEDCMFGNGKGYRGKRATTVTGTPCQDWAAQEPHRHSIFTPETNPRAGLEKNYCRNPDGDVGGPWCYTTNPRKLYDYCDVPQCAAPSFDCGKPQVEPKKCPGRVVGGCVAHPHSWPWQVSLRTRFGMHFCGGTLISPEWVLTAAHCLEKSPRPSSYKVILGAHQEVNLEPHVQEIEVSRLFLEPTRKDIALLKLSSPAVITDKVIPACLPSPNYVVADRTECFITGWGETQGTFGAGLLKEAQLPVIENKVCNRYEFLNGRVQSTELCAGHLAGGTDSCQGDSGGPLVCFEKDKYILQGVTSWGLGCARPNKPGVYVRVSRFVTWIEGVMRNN
T3 sequence (P00747 97-580 partner limits assumed): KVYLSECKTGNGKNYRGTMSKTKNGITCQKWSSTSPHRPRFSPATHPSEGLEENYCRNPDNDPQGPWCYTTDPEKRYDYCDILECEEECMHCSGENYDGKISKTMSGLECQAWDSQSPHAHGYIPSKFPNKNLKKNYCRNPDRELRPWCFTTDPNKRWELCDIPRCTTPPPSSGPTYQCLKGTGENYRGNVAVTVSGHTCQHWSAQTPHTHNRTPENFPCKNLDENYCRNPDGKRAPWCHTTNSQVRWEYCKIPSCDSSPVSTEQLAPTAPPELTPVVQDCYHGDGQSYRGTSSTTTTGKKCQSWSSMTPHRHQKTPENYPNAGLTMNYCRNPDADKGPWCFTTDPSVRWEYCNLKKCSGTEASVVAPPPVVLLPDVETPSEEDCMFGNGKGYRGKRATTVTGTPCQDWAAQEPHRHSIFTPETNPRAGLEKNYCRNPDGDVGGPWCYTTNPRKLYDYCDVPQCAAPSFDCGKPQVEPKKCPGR
Protocol: as §1
Human plasmin is purchased from Boehringer Mannheim, Indianapolis, Ind.; nt-PA is purchased as single chain activity reference from American Diagnostica, Greenwich, Conn. modified-t-PA6 (mt-PA6) is prepared at Eli Lilly and Company by procedure known in the art (See, Burck, et al., J. Biol. Chem., 265, […] (1990). Plasmin chromogenic substrate H-D-Val-Leu-Lys-p-nitroanilide and tissue plasminogen activator (t-PA) substrate H-D-Ile-Pro-Arg-p-nitroanilide are purchased from Kabi Vitrum, Stockholm, Sweden.

Human plasma [1] = assay: Human plasma anticoagulation, thrombin time (TT); conditions: concentration required to double the thrombin time, linear extrapolation
Protocol: (§3) Dog plasma and rat plasma is obtained from conscious mixed-breed hounds (either sex, Hazelton-LRE, Kalamazoo, Mich., U.S.A.) or from anesthetized male Sprague-Dawley rats (Harlan Sprague-Dawley, Inc., Indianapolis, Ind., U.S.A.) by venipuncture into 3.8 percent citrate. Fibrinogen is prepared from in-date ACD human blood as the fraction I-2 according to previous procedures and specifications. […] Human fibrinogen is also purchased as 98 percent pure/plasmin free from American Diagnostica, Greenwich, Conn. Coagulation reagents ACTIN, Thromboplastin, and Human plasma are from Baxter Healthcare Corp., Dade Division, Miami, Fla. Bovine thrombin from Parke-Davis ([…], Mich.) is used for coagulation assays in plasma.
(§4) Coagulation assay procedures are as previously described. […] A CoAScreener coagulation instrument (American LABor, Inc.) is used for all coagulation assay measurements. The prothrombin time (PT) is measured by adding 0.05 mL saline and 0.05 mL Thromboplastin-C reagent to 0.05 mL test plasma. The activated partial thromboplastin time (APTT) is measured by incubation of 0.05 mL test plasma with 0.05 mL Actin reagent for 120 seconds followed by 0.05 mL CaCl2 (0.02M). The thrombin time (TT) is measured by adding 0.05 mL saline and 0.05 mL thrombin (10 NIH units/mL) to 0.05 mL test plasma. The compounds of Formula I are added to human or animal plasma over a wide range of concentrations to determine prolongation effects on the APTT, PT, and TT assays. Linear extrapolations are performed to estimate the concentrations required to double the clotting time for each assay.

Human plasma [2] = assay: Human plasma anticoagulation, activated partial thromboplastin time (APTT); conditions: concentration required to double the APTT, linear extrapolation
Protocol: as §3, §4

Human plasma [3] = assay: Human plasma anticoagulation, prothrombin time (PT); conditions: concentration required to double the PT, linear extrapolation
Protocol: as §3, §4

[4] = mean over a range of concentrations, […]

## N=C(N)c1ccc(CNC(=O)[C@@H]2C[C@@H]3CCCC[C@@H]3N2C(=O)[C@@H]2NCC[C@@H]3CCCC[C@@H]32)cc1 (relative stereo) [Example 42, D-1-Piq-cis-Ohi-p-NHCH2 C6 H4 C(NH)NH2.2HCl]
Human Thrombin
  Kass Human Thrombin: 38
Factor Xa
  Kass Xa: 0.07 × 10^6 (L/mole)
Bovine trypsin
  Kass Trypsin: 43 × 10^6 (L/mole)
Human plasmin
  Kass Plasmin: 0.12 × 10^6 (L/mole)
Human plasma [1]
  Human Plasma Anticoagulation 2× Clotting time TT: 20 ng/mL
Human plasma [2]
  Human Plasma Anticoagulation 2× Clotting time APTT: 270 ng/mL
Human plasma [3]
  Human Plasma Anticoagulation 2× Clotting time PT: 320 ng/mL

## N=C(N)c1ccc(CNC(=O)[C@@H]2C[C@@H]3CCCC[C@@H]3N2C(=O)[C@H]2C[C@H]3CCCC[C@H]3CN2)cc1 (relative stereo) [Example 43, D-3-Piq-cis-Ohi-p-NHCH2 C6 H4 C(NH)NH2.2HCl]
Human Thrombin; [4]
  Kass Human Thrombin: 1.4 × 10^6 (L/mole)
Factor Xa
  Kass Xa: 0.05 × 10^6 (L/mole)
Bovine trypsin
  Kass Trypsin: 100 × 10^6 (L/mole)
Human plasmin
  Kass Plasmin: 0.30 × 10^6 (L/mole)
Human plasma [1]
  Human Plasma Anticoagulation 2× Clotting time TT: 280 ng/mL
Human plasma [2]
  Human Plasma Anticoagulation 2× Clotting time APTT: 1,100 ng/mL
Human plasma [3]
  Human Plasma Anticoagulation 2× Clotting time PT: 930 ng/mL

## Nc1ccc(CNC(=O)[C@@H]2CCCN2C(=O)[C@@H](CC2CCCCC2)NCC(=O)O)c(F)c1 [Example 64, HO2 CCH2 -D-Cha-Pro-4-NHCH2 -3-F-C6 H3 NH2.HCl]
Human Thrombin; [4]
  Kass Human Thrombin: 15 × 10^6 (L/mole)
Factor Xa
  Kass Xa: 0.01 × 10^6 (L/mole)
Human plasma [1]
  Human Plasma Anticoagulation 2× Clotting time TT: 23 ng/mL
Human plasma [2]
  Human Plasma Anticoagulation 2× Clotting time APTT: 900 ng/mL
Human plasma [3]
  Human Plasma Anticoagulation 2× Clotting time PT: 650 ng/mL

## N=C(N)c1ccc(CNC(=O)[C@@H]2CCCN2C(=O)[C@@H](CC2CCCCC2)NCCCC(=O)O)cc1 [Example 85, HOOCCH2 CH2 CH2 -D-Cha-pro-p-NHCH2 C6 H4 C(NH)NH2.HCl]
Human Thrombin; [4]
  Kass Human Thrombin: 265 × 10^6 (L/mole)
Bovine trypsin
  Kass Trypsin: 30.8 × 10^6 (L/mole)
Human plasma [1]
  Human Plasma Anticoagulation 2× Clotting time TT: 4.9 ng/mL
Human plasma [2]
  Human Plasma Anticoagulation 2× Clotting time APTT: 100 ng/mL
Human plasma [3]
  Human Plasma Anticoagulation 2× Clotting time PT: 197 ng/mL

## N=C(N)c1ccc(CNC(=O)[C@@H]2CCCN2C(=O)[C@H](NCC(=O)O)C2CCCCC2)cc1 [Example 86, HOOCCH2 -D-Chg-Pro-p-NHCH2 C6 H4 C(NH)NH2.HCl]
Human Thrombin
  Kass Human Thrombin: 200
Factor Xa
  Kass Xa: 0.63 × 10^6 (L/mole)
Human plasma [1]
  Human Plasma Anticoagulation 2× Clotting time TT: 4 ng/mL
Human plasma [2]
  Human Plasma Anticoagulation 2× Clotting time APTT: 81 ng/mL
Human plasma [3]
  Human Plasma Anticoagulation 2× Clotting time PT: 180 ng/mL

## N=C(N)c1ccc(CNC(=O)[C@@H]2CCCN2C(=O)[C@@H](CCC2CCCCC2)NCC(=O)O)cc1 [Example 88, HOOCCH2 -D-hCha-Pro-p-NHCH2 C6 H4 C(NH)NH2.HCl]
Human Thrombin; [4]
  Kass Human Thrombin: 410 × 10^6 (L/mole)
Factor Xa
  Kass Xa: 3.9 × 10^6 (L/mole)
Human plasma [1]
  Human Plasma Anticoagulation 2× Clotting time TT: 4 ng/mL
Human plasma [2]
  Human Plasma Anticoagulation 2× Clotting time APTT: 100 ng/mL
Human plasma [3]
  Human Plasma Anticoagulation 2× Clotting time PT: 200 ng/mL

## N=C(N)c1ccc(CNC(=O)CN(CCc2ccccc2)C(=O)CNCC(=O)O)cc1 [Example 89, HOOCCH2 -Gly-N-C6 H5 CH2 CH2 Gly-p-NHCH2 C6 H4 C(NH)NH2.HCl]
Human Thrombin; [4]
  Kass Human Thrombin: 0.14 × 10^6 (L/mole)
Factor Xa
  Kass Xa: 0.071 × 10^6 (L/mole)
Human plasma [1]
  Human Plasma Anticoagulation 2× Clotting time TT: 570 ng/mL
Human plasma [2]
  Human Plasma Anticoagulation 2× Clotting time APTT: 51,000 ng/mL
Human plasma [3]
  Human Plasma Anticoagulation 2× Clotting time PT: 37,000 ng/mL

## CCC(CC)C(=O)N[C@@H](CCC(=O)O)C(=O)N1CCC[C@H]1C(=O)NCc1ccc(C(=N)N)cc1 [Example 90, (C2 H5)2 CHCO-Glu-Pro-p-NHCH2 C6 H4 C(NH)NH2.HCl]
Human Thrombin; [4]
  Kass Human Thrombin: 0.61 × 10^6 (L/mole)
Factor Xa
  Kass Xa: 0.002 × 10^6 (L/mole)
Human plasma [1]
  Human Plasma Anticoagulation 2× Clotting time TT: 330 ng/mL
Human plasma [2]
  Human Plasma Anticoagulation 2× Clotting time APTT: 14,500 ng/mL
Human plasma [3]
  Human Plasma Anticoagulation 2× Clotting time PT: 14,600 ng/mL

## CCC(CC)C(=O)N[C@@H](CCS(C)(=O)=O)C(=O)N1CCC[C@H]1C(=O)NCc1ccc(C(=N)N)cc1 [Example 91, (C2 H5)2 CHCO-Met(O2)-pro-p-NHCH2 C6 H4 C(NH)NH2.HCl]
Human Thrombin; [4]
  Kass Human Thrombin: 3.6 × 10^6 (L/mole)
Factor Xa
  Kass Xa: 0.007 × 10^6 (L/mole)
Human plasma [1]
  Human Plasma Anticoagulation 2× Clotting time TT: 63 ng/mL
Human plasma [2]
  Human Plasma Anticoagulation 2× Clotting time APTT: 3,000 ng/mL
Human plasma [3]
  Human Plasma Anticoagulation 2× Clotting time PT: 3,500 ng/mL

## CS(=O)(=O)CC(=O)N[C@H](CC1CCCCC1)C(=O)N1CCC[C@H]1C(=O)NCc1ccc(C(=N)N)cc1 [Example 92, MeSO2 CH2 CO-D-Cha-Pro-p-NHCH2 C6 H4 C(NH)NH2.HCl]
Human Thrombin; [4]
  Kass Human Thrombin: 130 × 10^6 (L/mole)
Bovine trypsin
  Kass Trypsin: 7.7 × 10^6 (L/mole)
Human plasma [1]
  Human Plasma Anticoagulation 2× Clotting time TT: 8.9 ng/mL
Human plasma [2]
  Human Plasma Anticoagulation 2× Clotting time APTT: 210 ng/mL
Human plasma [3]
  Human Plasma Anticoagulation 2× Clotting time PT: 340 ng/mL

## HOOCCH2 -D-hPhe-Pro-p-NHCH2 C6 H4 C(NH)NH2.HCl [Example 87]
Human Thrombin; [4]
  Kass Human Thrombin: 30 × 10^6 (L/mole)
Factor Xa
  Kass Xa: 2.5 × 10^6 (L/mole)
Human plasma [1]
  Human Plasma Anticoagulation 2× Clotting time TT: 9 ng/mL
Human plasma [2]
  Human Plasma Anticoagulation 2× Clotting time APTT: 260 ng/mL
Human plasma [3]
  Human Plasma Anticoagulation 2× Clotting time PT: 310 ng/mL
